Reference: ChEMBL document CHEMBL1130558, “Synthesis and preliminary structure-activity relationships of 1-[(3-fluoro-4-pyridinyl)amino]-3-methyl-1H-indol-5-yl methyl carbamate (P10358), a novel acetylcholinesterase inhibitor” (Bioorg Med Chem Lett, 1997)
Calls of active or inactive are those of the source.

Columns and labels:
Mus musculus [1] = assay: The percent of animals in the scopolamine-drug group with latencies greater than the cutoff time at subcutaneous dose of 3.0 mg/kg; type: functional
Cholinesterase [2] = target: T1, Cholinesterase (Homo sapiens, UniProt P06276); assay: In vitro inhibition of human serum Butyrylcholinesterase using butyrylthiocholine as substrate; 0.69-1.2
Mus musculus [3] = assay: Compound was evaluated in vivo for the significant activity at all doses in reversing the Scopolamine dementia dark avoidance (SDDA) in mice; 2/3; type: functional
[4] = target: T2, Acetylcholinesterase (Rattus norvegicus) (UniProt P37136); assay: Tested for percent ex vivo inhibition of rat striatal acetylcholinesterase at peroral dose of 20 mg/kg at 24 hr; type: organism-based; parameters: dose 20 mg/kg
T2 sequence (whole entry): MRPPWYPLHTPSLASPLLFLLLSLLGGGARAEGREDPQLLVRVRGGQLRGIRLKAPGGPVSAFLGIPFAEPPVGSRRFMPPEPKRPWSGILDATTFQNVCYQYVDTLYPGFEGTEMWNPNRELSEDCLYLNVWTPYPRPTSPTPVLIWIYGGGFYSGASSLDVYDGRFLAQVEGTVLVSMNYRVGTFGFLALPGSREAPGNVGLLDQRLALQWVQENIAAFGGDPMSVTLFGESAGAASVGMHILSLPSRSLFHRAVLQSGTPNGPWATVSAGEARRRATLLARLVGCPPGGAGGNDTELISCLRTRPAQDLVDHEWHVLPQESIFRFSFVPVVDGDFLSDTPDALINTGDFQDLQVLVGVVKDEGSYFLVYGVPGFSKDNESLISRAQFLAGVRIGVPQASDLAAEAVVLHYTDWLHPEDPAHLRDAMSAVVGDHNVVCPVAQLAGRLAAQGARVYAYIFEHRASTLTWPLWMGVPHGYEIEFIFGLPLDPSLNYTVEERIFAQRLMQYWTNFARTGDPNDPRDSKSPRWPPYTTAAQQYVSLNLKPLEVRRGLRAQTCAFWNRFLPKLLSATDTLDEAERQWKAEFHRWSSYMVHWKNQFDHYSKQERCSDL

[5] = target: T2, Acetylcholinesterase (Rattus norvegicus); assay: Tested for percent ex vivo inhibition of rat striatal acetylcholinesterase at peroral dose of 20 mg/kg at 4 hr; type: organism-based; parameters: dose 20 mg/kg
Mus musculus [6] = assay: The percent of animals in the scopolamine-drug group with latencies greater than the cutoff time at subcutaneous dose of 1.0 mg/kg; type: functional
Acetylcholinesterase [7] = target: T3, Acetylcholinesterase (Rattus norvegicus, UniProt P37136); assay: Compound was evaluated in vitro in rats for the inhibition of brain (striatal) acetylcholinesterase (AChEI) using acetylthiocholine as substrate; 3.3-4.8
T3 sequence (P37136 whole entry): T2 sequence (whole entry)

Acetylcholinesterase [8] = target: T3, Acetylcholinesterase; assay: Compound was evaluated in vitro in rats for the inhibition of brain (striatal) acetylcholinesterase (AChEI) using acetylthiocholine as substrate; 21-88
Mus musculus [9] = assay: Compound evaluated in vivo for reversing the Scopolamine dementia dark avoidance (SDDA) in mice expressed number of active dosages versus the total number of dosages evaluated; 3/3 and active; type: functional, organism-based
Mus musculus [10] = assay: The percent of animals in the scopolamine-drug group with latencies greater than the cutoff time at subcutaneous dose of 0.03 mg/kg; type: functional
[11] = target: T2, Acetylcholinesterase (Rattus norvegicus); assay: Tested for percent ex vivo inhibition of rat striatal acetylcholinesterase at peroral dose of 10 mg/kg at 1 hr; type: organism-based; parameters: dose 10 mg/kg
[12] = target: T2, Acetylcholinesterase (Rattus norvegicus); assay: Tested for percent ex vivo inhibition of rat striatal acetylcholinesterase at peroral dose of 10 mg/kg at 24 hr; type: organism-based; parameters: dose 10 mg/kg
[13] = target: T2, Acetylcholinesterase (Rattus norvegicus); assay: Dose required to exhibit robust maximal effect for acetylcholinesterase (AChE) inhibition following intraperitoneal administration
Mus musculus [14] = assay: The percent of animals in the scopolamine-drug group with latencies greater than the cutoff time at subcutaneous dose of 0.3 mg/kg; type: functional
[15] = target: T2, Acetylcholinesterase (Rattus norvegicus); assay: Tested for percent ex vivo inhibition of rat striatal acetylcholinesterase at peroral dose of 20 mg/kg at 1 hr; type: organism-based; parameters: dose 20 mg/kg
Mus musculus [16] = assay: The percent of animals in the scopolamine-drug group with latencies greater than the cutoff time at subcutaneous dose of 0.1 mg/kg; type: functional
[17] = target: T2, Acetylcholinesterase (Rattus norvegicus); assay: Tested for percent ex vivo inhibition of rat striatal acetylcholinesterase at peroral dose of 10 mg/kg at 4 hr; type: organism-based; parameters: dose 10 mg/kg
Cholinesterase [18] = target: T1, Cholinesterase; assay: In vitro inhibition of human serum Butyrylcholinesterase using butyrylthiocholine as substrate; 0.15-0.22
Acetylcholinesterase [19] = target: T3, Acetylcholinesterase; assay: Compound was evaluated in vitro in rats for the inhibition of brain (striatal) acetylcholinesterase (AChEI) using acetylthiocholine as substrate; 0.084-0.19
[20] = target: T2, Acetylcholinesterase (Rattus norvegicus); assay: Compound was evaluated ex vivo for the inhibition of acetylcholinesterase (AChEI) one hour after oral administration
[21] = target: T2, Acetylcholinesterase (Rattus norvegicus); assay: Tested for percent ex vivo inhibition of rat striatal acetylcholinesterase at peroral dose of 20 mg/kg at 6 hr; type: organism-based; parameters: dose 20 mg/kg
[22] = target: T2, Acetylcholinesterase (Rattus norvegicus); assay: Tested for percent ex vivo inhibition of rat striatal acetylcholinesterase at peroral dose of 10 mg/kg at 6 hr; type: organism-based; parameters: dose 10 mg/kg
[23] = target: T4, Acetylcholine receptor subunit delta (Torpedo californica) (UniProt P02718); assay: In vitro inhibition of Nicotinic acetylcholine receptor stimulation; NI=No inhibition
T4 sequence (whole entry): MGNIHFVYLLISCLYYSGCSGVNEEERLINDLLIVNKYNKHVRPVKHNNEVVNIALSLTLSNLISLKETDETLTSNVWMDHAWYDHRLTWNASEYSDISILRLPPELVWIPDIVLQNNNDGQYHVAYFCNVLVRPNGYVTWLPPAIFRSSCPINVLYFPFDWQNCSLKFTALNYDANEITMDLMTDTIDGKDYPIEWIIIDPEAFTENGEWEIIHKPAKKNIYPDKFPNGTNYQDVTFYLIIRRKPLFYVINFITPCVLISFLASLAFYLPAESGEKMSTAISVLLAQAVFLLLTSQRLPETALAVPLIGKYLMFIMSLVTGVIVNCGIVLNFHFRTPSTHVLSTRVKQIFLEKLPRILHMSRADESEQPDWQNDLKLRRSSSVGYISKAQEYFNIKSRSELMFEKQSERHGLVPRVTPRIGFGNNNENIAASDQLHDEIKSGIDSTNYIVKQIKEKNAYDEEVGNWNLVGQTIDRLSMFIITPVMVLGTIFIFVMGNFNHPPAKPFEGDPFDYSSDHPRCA

[24] = target: T5, Muscarinic acetylcholine receptor M4 (Homo sapiens) (UniProt P08173); assay: In vitro inhibition of muscarinic receptor stimulation; NI=No inhibition
T5 sequence (whole entry): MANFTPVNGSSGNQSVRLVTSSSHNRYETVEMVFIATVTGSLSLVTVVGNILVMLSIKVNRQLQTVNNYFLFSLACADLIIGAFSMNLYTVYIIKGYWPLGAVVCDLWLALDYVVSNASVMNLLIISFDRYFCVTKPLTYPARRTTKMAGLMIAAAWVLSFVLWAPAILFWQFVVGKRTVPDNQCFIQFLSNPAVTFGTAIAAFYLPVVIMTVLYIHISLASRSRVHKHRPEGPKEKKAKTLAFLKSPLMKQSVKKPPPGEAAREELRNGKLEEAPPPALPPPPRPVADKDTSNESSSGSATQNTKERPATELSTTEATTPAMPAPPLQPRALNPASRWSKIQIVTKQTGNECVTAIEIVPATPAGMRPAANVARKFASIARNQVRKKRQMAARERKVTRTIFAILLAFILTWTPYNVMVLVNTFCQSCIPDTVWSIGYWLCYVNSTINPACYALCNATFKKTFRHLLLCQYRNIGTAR

T1 sequence (P06276 whole entry): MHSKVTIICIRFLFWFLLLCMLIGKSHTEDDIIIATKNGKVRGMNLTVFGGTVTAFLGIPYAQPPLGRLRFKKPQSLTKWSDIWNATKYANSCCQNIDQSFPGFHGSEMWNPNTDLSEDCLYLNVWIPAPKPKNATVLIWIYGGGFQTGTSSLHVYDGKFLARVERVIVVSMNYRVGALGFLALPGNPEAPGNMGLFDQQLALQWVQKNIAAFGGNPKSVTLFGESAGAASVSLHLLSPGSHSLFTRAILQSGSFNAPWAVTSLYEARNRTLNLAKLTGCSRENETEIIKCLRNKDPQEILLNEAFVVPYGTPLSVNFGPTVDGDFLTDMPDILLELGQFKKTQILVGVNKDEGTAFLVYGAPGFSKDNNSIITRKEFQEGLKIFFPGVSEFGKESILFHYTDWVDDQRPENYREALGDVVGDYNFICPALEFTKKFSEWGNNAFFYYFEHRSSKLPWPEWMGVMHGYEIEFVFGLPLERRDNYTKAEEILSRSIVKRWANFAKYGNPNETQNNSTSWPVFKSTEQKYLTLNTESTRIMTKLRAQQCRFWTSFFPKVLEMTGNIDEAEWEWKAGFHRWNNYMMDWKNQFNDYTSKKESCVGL

For CCCCNC(=O)Oc1ccc2c(c1)c(C)cn2N(CCC)c1ccncc1F, the Response (Mus musculus [1]) was 33%, the IC50 (Cholinesterase [2]) was 920 nM and the Activity (Mus musculus [3]) was 2. The inhibition [4] was 11%, the inhibition [5] was 26% and the Response (Mus musculus [6]) was 33%. For the same compound, the IC50 (Acetylcholinesterase [7]) was 4000 nM.

With CCCCCCCNC(=O)Oc1ccc2c(c1)c(C)cn2N(CCC)c1ccncc1F the IC50 (Acetylcholinesterase [8]) was 43000 nM.

In the case of CNC(=O)Oc1ccc2c(c1)c(C)cn2Nc1ccncc1F, the Activity (Mus musculus [9]) is reported as “Active”, the Response (Mus musculus [10]) is reported as 40% and the inhibition [11] is reported as 67%. The inhibition [12] was 0%, the DOSE [13] was 0.625 mg/kg and the Response (Mus musculus [14]) was 28%. It also gave an inhibition [15] of 82%, a Response (Mus musculus [16]) of 21% and an inhibition [17] of 56%. It also gave an IC50 (Cholinesterase [18]) of 190 nM, an IC50 (Acetylcholinesterase [19]) of 130 nM and an inhibition [4] of 20%. The ED50 [20] was 8.3 mg/kg, the inhibition [21] was 82% and the inhibition [5] was 84%. For the same compound, the inhibition [22] was 3%.

For CCCN(c1ccncc1)n1ccc2ccccc21, the Activity [23] was “inactive” and the Activity [24] was “inactive”.
